What was measured:
[1] = tested on: 20-month-old aged female C57BL/6 mice; experiment: Physical functional analysis (grip strength, rotarod, hanging, balance beam) in aged mice; type: in vivo, mouse
Experimental: Forelimb grip strength was measured by a grip strength meter (Muromachi Kikai Co., Tokyo, Japan). Each mouse performed five trials for force measurement, and the values were normalized to body and recorded. A rotarod test was carried out by using the rotarod treadmill (Singa Technology Corporation, Taoyuan City, Taiwan). The speed was adjusted to 4 rpm for 4 sec, 10 rpm for 10 sec, 20 rpm for 20 sec, and then 40 rpm until the mice fell. Mice were familiarized with the rotarod and balance beam by running 5 min for three consecutive days before the onset of experimentation. During the experiment, each mouse performed four trials, and the average time that each rodent was able to stay on top of the rotarod treadmill was recorded. The balance beam test was used to assess subtle motor coordination and balance. After initial training, mice were given four consecutive trials where they were required to cross 60 cm of a round beam (14 mm in diameter). The time for crossing the beam and the number of hind-feet slip were recorded. Hanging endurance was determined by Kondziella's inverted hanging screen test. Mice were putted at the center of grasped wire screen (bar thickness, 2 mm; mesh, 10 mm). After inverting the wire screen, the time of sustained limb tension on the screen were recorded. A fixed maximum hanging limit of 600 seconds was used. Each trial was repeated three times at 30-min interval, the mean values were recorded.

[2] = tested on: 20-month-old aged female C57BL/6 mice; experiment: Metabolic health in aged mice (body weight, composition, intake, lipids, IPGTT, IPITT, gene expression); type: in vivo, mouse
Experimental: For the food and water intake measurement, mice were divided into individual animal cages individually for 3 days for stabilizing the animals, and then daily consumption was recorded. The values were calculated by adjusting for body weight.
Body composition was measured by Minispec LF50 TD-NMR (Bruker, MA, USA) based on nuclear magnetic resonance methods. Briefly, mice were anesthetized for the duration of the procedure by 3% isoflurane (Zoctis, London, UK) and placed in the scanning chamber in the prone position, with the limbs and tail stretched away from the body. The analysis would be conducted by default software per manufacturer's protocol. The vascular networks […] were quantified by in vivo micro-computed tomography (U-CT, Milabs, Netherlands). Briefly, mice intravenously received 150 μL ExiTron™ nano 12000 (#130-095-698, Miltonic Biotec GmbH, Bergisch Gladbach, Germany), and then mice were anesthetized with isoflurane before being positioned on the scanning chamber. After scanning, the blood vessels were analyzed by a curved multiplanar reconstruction algorithm by using Osirix software (Bernex, Switzerland).
Mice fasted 16 hours and 2 hours before performing an IPGT test and IPIT test, respectively. IPGTT was performed by intraperitoneal injection of fasted mice with 1% body weight of sterile glucose/PBS (20% weight/volume). IPITT was performed by intraperitoneal injection of fasted mice with insulin (0.75 unit/kg body weight) (#12585014, Gibco). Blood glucose levels were measured at indicative timepoints after injection by a blood glucometer (countour plus, Ascensia Diabetes Care, Hong Kong).
Serum was collected by cardiac puncture upon sacrifice.
RNAs were purified by using the TRIzol® (#15596018, Invitrogen) and chloroform method (#C7559, Sigma-Aldrich) and reversed transcribed using High-Capacity cDNA Reverse Transcription Kit (#4368814, Applied Biosystems, Foster City, CA, USA). The quantitative RT-PCR was conducted with universal probe system (Roche Life Science, Indianapolis, IN, USA) by using a QuantStudio™ 7 Flex Real-Time PCR System (Applied Biosystems) and was normalized by the expression of GAPDH.

[3] = tested on: 20-month-old female C57BL/6 mice; experiment: Lifespan and cancer incidence analysis, lifelong GB from 20 months of age; type: in vivo, mouse
Excerpt: The mice were not involved in any experiments to maximally reduce potential interference and stress to animals.

[4] = tested on: healthy adult humans; details: short-term pharmacological studies; cited from earlier work
[5] = aged mice, GB 2 months, p<0.0001
[6] = among the three groups (young, vehicle-aged, GB-aged)

For CC1C(=O)OC2C(O)C34C5CC(C(C)(C)C)C36C(OC(=O)C6O)OC4(C(=O)O5)C12O (centres unmarked) [GB, Ginkgolide B], the grip strength ([1]; GB 12 mg/kg daily oral 2 months vs vehicle-aged, p<0.01) was “higher”, the duration of hanging ([1]; GB 2 months vs vehicle-aged, p<0.0001) was “prolonged duration” and the “duration on the rotarod” value ([1]; GB 2 months vs vehicle-aged, p<0.05) was “prolonged duration”. For the same compound, the “balance beam: latency to cross” value ([1]; GB 2 months, p<0.001) was “decreased”, the “balance beam: number of foot slips” value ([1]; GB 2 months, p<0.001) was “reduced” and the “food and water consumptions” value ([2]; aged mice, GB 2 months vs vehicle, p=0.5127 and 0.9368) was “not improved”. The lean mass [2, 5] was “increase”, the whole-body fat mass [2, 5] was “decrease” and the “expression of Pkm in aged skeletal muscle” value ([2]; aged mice, GB 2 months, p<0.0001, not in aged liver) was “restored”. For the same compound, the “expression of Glut4 in aged skeletal muscle” value ([2]; aged mice, GB 2 months, p=0.0035, not in aged liver) was “restored”, the “aging-related alteration in serum total cholesterol level” value ([2]; aged mice, GB 2 months, p=0.0284) was “reversed” and the “aging-related glucose intolerance (IPGTT)” value ([2]; aged mice, GB 2 months, p=0.0322 in AUC) was “improved”. The “aging-related alteration in serum triglyceride level” value ([2]; aged mice, GB 2 months, p=0.0424) was “reversed”, the body weight reduction ([2]; aged mice, post-GB administration 2 months, p=0.0123) was 6% and the fasting blood glucose [2, 6] was “no significant difference”. For the same compound, the “insulin sensitivity (IPITT)” value [2, 6] was “no difference”, the “age at 50% cumulative cancer incidence” value ([3]; GB group, vehicle 891 days, p=0.0002 log-rank) was 1025 days and the aging-associated mortality ([3]; GB vs vehicle aged mice) was “delayed”. The “hazard ratio by Mantel-Haenszel” value ([3]; GB vs vehicle aged mice) was 0.4577, the “hazard ratio by log-rank test” value ([3]; GB vs vehicle aged mice) was 0.3526 and the “macroscopic tumors detected by necropsy” value ([3]; GB-aged mice compared with vehicle group) was “less macroscopic tumors”. For the same compound, the median lifespan extension ([3]; from the inception of GB administration at 20 months, 12 mg/kg daily, p=0.0002 log-rank, 0.0064 Gehan-Breslow-Wilcoxon) was 30%, the “lifespan extension (summary statement)” value ([3]; lifelong oral GB in mice starting from 20 months old) was 20% and the “median lifespan extensions by tumor incidence” value ([3]; p=0.0011 and 0.03 by log-rank test) was “observed in both tumor and non-tumor cohorts”. For the same compound, the “extension of mean maximal lifespans of the 10% and 20% longest-lived mice” value ([3]; p=0.0286 and 0.0006) was “around 55 days” and the “tolerability of multiple administration” value [4] was “well tolerated”.

Source: patent US20240299345A1, “GINKGOLIDE B AND ITS DERIVATIVES FOR INHIBITING AND/OR REVERSING AGING” (CHINA MEDICAL UNIVERSITY, priority 2023, published 2024)
